One series has as its system Z-AAT. The conditions noted are these: PiZ mouse model of AATD, cited from earlier work.
A further series concerns hAAT. Kind of series: Serum hAAT protein levels in PiZ mice (ELISA). The conditions noted are these: for Serum hAAT normalized to day 1: PiZ mice, single IV 6 mg/kg with 6 mg/kg MLP delivery polymer; for Serum hAAT normalized to day 1 and controls: female PiZ mice, single IV 8 mg/kg + 8 mg/kg MLP delivery polymer, mice euthanized Day 29. In kind it is in vivo, human (expressed in PiZ mice). The protocol: (§1) Human AAT protein levels in serum were monitored for 29 days. At the indicated times, blood samples were collected and assayed for hAAT by ELISA. Day 1 samples were collected prior to trigger administration. For mRNA analysis, 3-4 mice were euthanized at each of days 3, 8, 15, 22, and 29. For euthanized mice, cardiac stick were performed for serum isolation for AAT ELISA (200 μl serum). Half of the left lateral liver lobe was collected and snap-freeze in liquid nitrogen for RNA isolation. The remainder of the left lobes were embedded into paraffin blocks for PAS-D staining with hematoxylin as counter-stain. Serum hAAT levels in mice given AAT Duplex Pair SEQ ID NO: 5/6 were 95% reduced on day 8 and remained reduced to day 29, at which time they were 79% reduced. Mice given AAT Duplex Pair SEQ ID NO: 5/6 were euthanized at either day 3, 8, 15, 22 or 29. Mice given saline or Luciferase siRNA control (SEQ ID 7/8) were euthanized on day 29. Levels of hAAT mRNA in the livers were measured by RT-qPCR. The hAAT mRNA in mice given AAT Duplex Pair SEQ ID NO: 5/6 was reduced by 97% on day 3 and remained reduced on day 29, at which time levels were 56% reduced. The size of the globules and the area of the liver covered by globules was digitally quantitated from liver specimens stained with PAS-D. Duplex Pair SEQ ID NO: 5/6 treated mice had 70% smaller globules at day 15 and 62% smaller globules at day 29. The area of the liver covered with globules was 83% reduced on day 15 and 72% reduced on day 29 (FIG. 5).

Another series deals with hAAT mRNA. Put plainly: Liver hAAT mRNA levels in PiZ mice (RT-qPCR). In kind it is in vivo, human (expressed in PiZ mice). The note with it: PiZ mice liver. The protocol:
Compositions comprising double-stranded AAT expression-inhibiting oligomeric compounds were administered to PiZ mice. PiZ mice harbor the human PiZ AAT mutant allele and model human AATD (Carlson et al. Journal of Clinical Investigation 1989). […] Liver hAAT mRNA production was measured at days 3 and 10. Reduced mRNA levels correlated with decreased serum hAAT protein levels, except that mRNA reduction preceded protein reduction by a few days. The level of liver hAAT mRNA production was measured at day 3 and day 10 following a single dose of AAT RNAi agent with MLP delivery polymer in PiZ mice. A sustained decrease in liver hAAT mRNA levels was observed that correlated with the decrease observed in serum hAAT protein levels.
as §1
In general terms: Quantitative PCR measures a nucleic acid by following its amplification.

Strand notation (5' to 3'): a small letter for the sugar, then the base; units joined by * are phosphorothioate-linked, units joined directly phosphodiester-linked; [ ] holds rarer units or linkages, { } end groups; capitals alone tell only the bases. {Chol-TEG} = cholesterol-triethylene glycol conjugate; [UNA-N] = unlocked nucleic acid (N: the base); [invdT] = inverted (3'-3') thymidine; d = 2'-deoxy (DNA); m = 2'-O-methyl; r = 2'-OH (RNA); f = 2'-fluoro

Regarding `NC(=O)N1c2ccccc2C=Cc2ccccc21` [carbamazepine], in the series on Z-AAT, the “Z-AAT globules in hepatocytes and hepatic fibrosis” value is “mediate a reduction in Z-AAT globules in hepatocytes and ameliorated hepatic fibrosis”.
Regarding `OCCN1CCN(CCCN2c3ccccc3Sc3ccc(C(F)(F)F)cc32)CC1` [fluphenazine], the “Z-AAT globules in hepatocytes and hepatic fibrosis” value with Z-AAT was “mediate a reduction in Z-AAT globules in hepatocytes and ameliorated hepatic fibrosis”.
Take `C[C@H](CC(=O)O)[C@H]1CC[C@H]2[C@@H]3[C@@H](O)C[C@@H]4C[C@H](O)CC[C@]4(C)[C@H]3CC[C@]12C` [nor-UDCA, nor-ursodeoxycholic acid]: in the series on Z-AAT (associated with an increase in hepatic autophagy), the “apoptotic signaling and accumulation of mutant Z-AAT in hepatocytes” value is “reduced apoptotic signaling and reduced accumulation of mutant Z-AAT in hepatocytes”.
For the compound “Luciferase siRNA control: Luciferase double-stranded siRNA control, SEQ ID NO: 7 and Chol-TEG SEQ ID NO: 8 (chain 1 dTfCmGfAmAfG[UNA-U]fAmCfUmCfAmGfCmGfUmAfAmGdT*dT; chain 2 {Chol-TEG}-mUrAmUfCmUfUmAfCmGfCmUfGmAfGmUfAmCfUmUfCmGfA[invdT]) [reference compound]”, the “Serum hAAT normalized to day 1” value in the series on hAAT (day 1 (reference)) came to 1.00; in the series with hAAT (day 3), 1.110 ± 0.147; in the series on hAAT (day −2 (pre-dose)), 0.766 ± 0.219. Besides, the “Serum hAAT normalized to day 1 and controls” value turned out to be 1.000 in the series with hAAT (Day 1); 0.994 ± 0.153 with hAAT (Day 3); 1.090 ± 0.092 in the series on hAAT (Day 8); 0.890 ± 0.080 in the series with hAAT (Day 15); 1.171 ± 0.095 in the series on hAAT (Day 22); 0.797 ± 0.074 with hAAT (Day 29). Also, the “Serum hAAT normalized to day 1 and controls” value with hAAT (Day −2) was 1.268 ± 0.143. For the same compound, the “Average relative mRNA level (hAAT)” value with hAAT mRNA (one injection 8 mg/kg + 8 mg/kg MLP delivery polymer, Day 29) was found to be 1.031. The “hAAT mRNA level” value in the series with hAAT mRNA (single IV 6 mg/kg with 6 mg/kg MLP delivery polymer, relative to mouse β-actin mRNA, day 3) came to 1.06 ± 0.20.

The values above are taken from patent US20190071670A1, “Methods Of Treatment For Alpha-1 Antitrypsin Deficiency” (Arrowhead Pharmaceuticals, Inc., priority 2016, published 2019).
